Measurements: patent US12590963B2, “Anti-cancer treatment of preselected subjects and screening methods to identify susceptible subjects” (TUDAG TU Dresden Aktiengesellschaft, priority 2018, dated 2026)

System: U-87 cells
Assay: Drug screening of FDA-approved compound library, cell viability by ATP levels (ATPLite)
Format: cell-based, human
Conditions: FGFJI medium
Protocol: A library of 1,600 FDA-approved compounds was screened on U-87 cells cultured in the improved conditions. Each drug was screened at both 3 micromolar and 10 micromolar concentrations. Cell viability was assessed by measuring ATP levels.
Drugs that opposed cell viability were further investigated. These drugs were re-screened under the more common cell culture conditions (in serum-supplemented RMPI medium, where cells are more differentiated). Some drugs were identified that also opposed growth under the more differentiated conditions. We also identified some drugs that only opposed growth in the improved conditions. It was focused on the latter drugs only as being the target compounds of the present invention.
White Corning 384 well plates (Cat #3570) were coated with 40 ul of […] polyornithine (Sigma, #P-365) at 370C overnight. The next day the plates were washed 5 times with water using a BioTek EL 406 plate washer. The plates were then coated with 40 ul of 1 mg/ml fibronectin (R&D Systems, #1030-Fn) for 2 hours at 370C and then washed 2 times with PBS. Either 15nl or 50nl of either 10 mM library compounds (MicroSource Pharmakon library) or 100% DMSO as negative control or 1 mM Staurosporine (ACROS #328532500) were dispensed with a Labcyte Echo 550 to screen the library at 3u M and 10 μM respectively. U87 cells were seeded in the plates with a WellMate drop dispenser (ThermoFischer) at a density of 3000 cells per well in 50 μl N2 medium and incubated for 20 hours at 37 °C in 5% C02. Cell viability was assayed using Perkin Elmer ATPLite (Cat 6016731) according to vendor's instructions. For the dose dependent verification assay, cells were seeded in N2 medium with or without serum to test the specificity of compound action.
A library of 1,600 FDA-approved compounds was screened at two different concentrations (10 μM and 3 μM) on U-87 cells cultured in FGFJI (FIG. 8).

[1] = 10 μM, second value of the cell

Structure (SMILES) | ATP assay score (3 μM, 10 μM) (3 μM, first value of the cell) | ATP assay score (3 μM, 10 μM) [1]
Oc1cc(Cl)ccc1Oc1ccc(Cl)cc1Cl [TRICLOSAN, 5-chloro-2-(2,4-dichlorophenoxy)phenol] | −7 | −5
CC(C)(C)CC(C)(C)c1ccc(O)c(Cc2ccc(Cl)cc2Cl)c1 [CLOFOCTOL, 2-[(2,4-dichlorophenyl)methyl]-4-(2,4,4-trimethylpentan-2-yl)phenol] | −11 | −5
CC[C@@H](C(=O)[C@@H](C)[C@@H](O)[C@H](C)CCc1ccc(C)c(O)c1C(=O)[O-])[C@H]1O[C@](CC)([C@H]2CC[C@](O)(CC)[C@H](C)O2)C[C@@H]1C.[Na+] [LASALOCID Na, sodium 6-[(3R,4S,5S,7R)-7-[(2S,3S,5S)-5-ethyl-5-[(2R,5R,6S)-5-ethyl-5-hydroxy-6-methyloxan-2-yl]-3-methyloxolan-2-yl]-4-hydroxy-3,5-dimethyl-6-oxononyl]-2-hydroxy-3-methylbenzoate] | −10 | −5
Oc1c(I)cc(Cl)c2cccnc12 [CLIOQUINOL, 5-chloro-7-iodoquinolin-8-ol] | −11 | −7
Oc1c(Cl)cc(Cl)cc1Sc1cc(Cl)cc(Cl)c1O.[Na+] [BITHIONATE Na, sodium 2,4-dichloro-6-(3,5-dichloro-2-hydroxyphenyl)sulfanylphenol] | −11 | −10
Oc1c(Br)cc(Br)c2cccnc12 [BROXYQUINOLINE, 5,7-dibromoquinolin-8-ol] | −11 | −8
